Assay results from the OligoGym collection.
HELM strings list units from the 5' end as sugar, base in round brackets, then linkage (d deoxyribose, r ribose, m 2'-O-methyl, p phosphodiester). Strings are as the collection lists them; they lack the last nucleoside at the 3' end of the tested compound. [moe] = 2'-O-(2-methoxyethyl) (MOE); [sp] = phosphorothioate linkage; [m5C] = 5-methylcytosine

Target: ATXN2
Experiment: mouse, dose not given
Conditions: ASO

Row | Substance | 3 h FOB score
1 | RNA1{[moe](A)[sp].[moe](A)p.[moe](A)p.[moe](G)p.[moe](A)p.d([m5C])[sp].d(T)[sp].d(T)[sp].d(T)[sp].d(G)[sp].d(A)[sp].d(A)[sp].d(A)[sp].d(T)[sp].d([m5C])[sp].[moe](T)p.[moe]([m5C])p.[moe](A)[sp].[moe]([m5C])}$$$$ (last 3' nucleoside missing) | 1 score 0-7
2 | RNA1{[moe](A)[sp].[moe](A)p.[moe](G)p.[moe](A)p.[moe](A)p.d(T)[sp].d([m5C])[sp].d([m5C])[sp].d(T)[sp].d(T)[sp].d(A)[sp].d(G)[sp].d([m5C])[sp].d(A)[sp].d([m5C])[sp].[moe](T)p.[moe](T)p.[moe](G)[sp].[moe](G)}$$$$ (last 3' nucleoside missing) | 6.25 score 0-7
3 | RNA1{[moe](A)[sp].[moe](A)p.[moe](G)p.[moe](A)p.[moe](T)p.d(G)[sp].d(G)[sp].d(G)[sp].d(T)[sp].d(T)[sp].d(T)[sp].d(T)[sp].d(T)[sp].d(T)[sp].d(T)[sp].[moe](G)p.[moe]([m5C])p.[moe](T)[sp].[moe](T)}$$$$ (last 3' nucleoside missing) | 4 score 0-7
4 | RNA1{[moe](A)[sp].[moe](A)p.[moe](G)p.[moe](A)p.[moe]([m5C])p.d(T)[sp].d(T)[sp].d(T)[sp].d(T)[sp].d(T)[sp].d(A)[sp].d(T)[sp].d(G)[sp].d(T)[sp].d(T)[sp].[moe](G)p.[moe]([m5C])p.[moe](T)[sp].[moe]([m5C])}$$$$ (last 3' nucleoside missing) | 3.5 score 0-7
5 | RNA1{[moe](A)[sp].[moe](A)p.[moe](G)p.[moe](T)p.[moe](A)p.d(G)[sp].d(T)[sp].d(G)[sp].d(T)[sp].d(T)[sp].d(T)[sp].d(G)[sp].d(G)[sp].d(G)[sp].d(A)[sp].[moe](T)p.[moe](G)p.[moe]([m5C])[sp].[moe](T)}$$$$ (last 3' nucleoside missing) | 6 score 0-7
6 | RNA1{[moe](A)[sp].[moe](A)p.[moe](G)p.[moe](T)p.[moe](T)p.d([m5C])[sp].d([m5C])[sp].d([m5C])[sp].d(A)[sp].d(T)[sp].d(T)[sp].d(G)[sp].d([m5C])[sp].d(A)[sp].d(T)[sp].[moe](T)p.[moe](G)p.[moe](T)[sp].[moe](T)}$$$$ (last 3' nucleoside missing) | 6 score 0-7
7 | RNA1{[moe](A)[sp].[moe](A)p.[moe](G)p.[moe](T)p.[moe]([m5C])p.d(T)[sp].d(T)[sp].d(G)[sp].d(T)[sp].d(T)[sp].d([m5C])[sp].d(A)[sp].d(G)[sp].d(T)[sp].d(G)[sp].[moe](T)p.[moe]([m5C])p.[moe]([m5C])[sp].[moe](T)}$$$$ (last 3' nucleoside missing) | 4.5 score 0-7
8 | RNA1{[moe](A)[sp].[moe](A)p.[moe](G)p.[moe]([m5C])p.[moe](T)p.d(T)[sp].d(A)[sp].d(G)[sp].d(A)[sp].d(G)[sp].d(T)[sp].d(T)[sp].d(T)[sp].d(T)[sp].d(T)[sp].[moe](G)p.[moe]([m5C])p.[moe]([m5C])[sp].[moe](T)}$$$$ (last 3' nucleoside missing) | 4 score 0-7
9 | RNA1{[moe](A)[sp].[moe](A)p.[moe](T)p.[moe](A)p.[moe](G)p.d(G)[sp].d(G)[sp].d(T)[sp].d(T)[sp].d(T)[sp].d(T)[sp].d(G)[sp].d(T)[sp].d(T)[sp].d([m5C])[sp].[moe](A)p.[moe](T)p.[moe](G)[sp].[moe]([m5C])}$$$$ (last 3' nucleoside missing) | 3.75 score 0-7
10 | RNA1{[moe](A)[sp].[moe](A)p.[moe](T)p.[moe](A)p.[moe](T)p.d(T)[sp].d([m5C])[sp].d([m5C])[sp].d(A)[sp].d(T)[sp].d(A)[sp].d([m5C])[sp].d(A)[sp].d(G)[sp].d(A)[sp].[moe](T)p.[moe]([m5C])p.[moe](G)[sp].[moe]([m5C])}$$$$ (last 3' nucleoside missing) | 2.5 score 0-7
11 | RNA1{[moe](A)[sp].[moe](A)p.[moe](T)p.[moe](G)p.[moe]([m5C])p.d([m5C])[sp].d(G)[sp].d(T)[sp].d(T)[sp].d(T)[sp].d(T)[sp].d(T)[sp].d(A)[sp].d([m5C])[sp].d(T)[sp].[moe]([m5C])p.[moe](T)p.[moe]([m5C])[sp].[moe](A)}$$$$ (last 3' nucleoside missing) | 0 score 0-7
12 | RNA1{[moe](A)[sp].[moe](A)p.[moe]([m5C])p.[moe](A)p.[moe](G)p.d([m5C])[sp].d(T)[sp].d([m5C])[sp].d(T)[sp].d(G)[sp].d(T)[sp].d(T)[sp].d([m5C])[sp].d(G)[sp].d(A)[sp].[moe](T)p.[moe](G)p.[moe]([m5C])[sp].[moe](A)}$$$$ (last 3' nucleoside missing) | 6 score 0-7
13 | RNA1{[moe](A)[sp].[moe](A)p.[moe]([m5C])p.[moe](G)p.[moe](A)p.d(T)[sp].d(G)[sp].d(A)[sp].d(T)[sp].d([m5C])[sp].d(T)[sp].d(G)[sp].d(G)[sp].d(T)[sp].d(A)[sp].[moe](T)p.[moe]([m5C])p.[moe]([m5C])[sp].[moe](T)}$$$$ (last 3' nucleoside missing) | 7 score 0-7
14 | RNA1{[moe](A)[sp].[moe](A)p.[moe]([m5C])p.[moe](G)p.[moe](G)p.d(A)[sp].d(G)[sp].d(T)[sp].d([m5C])[sp].d(A)[sp].d([m5C])[sp].d(T)[sp].d(G)[sp].d(T)[sp].d(T)[sp].[moe](T)p.[moe](T)p.[moe](T)[sp].[moe]([m5C])}$$$$ (last 3' nucleoside missing) | 5.5 score 0-7
15 | RNA1{[moe](A)[sp].[moe](A)p.[moe]([m5C])p.[moe](T)p.[moe](G)p.d(G)[sp].d(A)[sp].d(T)[sp].d(T)[sp].d([m5C])[sp].d(T)[sp].d(G)[sp].d(T)[sp].d(A)[sp].d([m5C])[sp].[moe](T)p.[moe](T)p.[moe](T)[sp].[moe](T)}$$$$ (last 3' nucleoside missing) | 4.75 score 0-7
16 | RNA1{[moe](A)[sp].[moe](A)p.[moe]([m5C])p.[moe]([m5C])p.[moe](A)p.d(T)[sp].d(G)[sp].d([m5C])[sp].d([m5C])[sp].d(T)[sp].d([m5C])[sp].d(T)[sp].d(T)[sp].d(T)[sp].d(T)[sp].[moe](T)p.[moe](T)p.[moe]([m5C])[sp].[moe](T)}$$$$ (last 3' nucleoside missing) | 0 score 0-7
17 | RNA1{[moe](A)[sp].[moe](A)p.[moe]([m5C])p.[moe]([m5C])p.[moe](A)p.d([m5C])[sp].d(T)[sp].d(G)[sp].d(A)[sp].d(T)[sp].d(T)[sp].d(T)[sp].d(A)[sp].d(T)[sp].d(A)[sp].[moe]([m5C])p.[moe](A)p.[moe]([m5C])[sp].[moe](T)}$$$$ (last 3' nucleoside missing) | 2.5 score 0-7
18 | RNA1{[moe](A)[sp].[moe](G)p.[moe](A)p.[moe](G)p.[moe](T)p.d(T)[sp].d(T)[sp].d(T)[sp].d(T)[sp].d(G)[sp].d([m5C])[sp].d([m5C])[sp].d(T)[sp].d(T)[sp].d([m5C])[sp].[moe]([m5C])p.[moe](A)p.[moe](T)[sp].[moe](T)}$$$$ (last 3' nucleoside missing) | 3 score 0-7
19 | RNA1{[moe](A)[sp].[moe](G)p.[moe](G)p.[moe](G)p.[moe](T)p.d(T)[sp].d(A)[sp].d(A)[sp].d(T)[sp].d(T)[sp].d(A)[sp].d(G)[sp].d(G)[sp].d(A)[sp].d(T)[sp].[moe]([m5C])p.[moe](T)p.[moe](A)[sp].[moe](T)}$$$$ (last 3' nucleoside missing) | 6 score 0-7
20 | RNA1{[moe](A)[sp].[moe](G)p.[moe](G)p.[moe](T)p.[moe](G)p.d(A)[sp].d(T)[sp].d(G)[sp].d(T)[sp].d(T)[sp].d(T)[sp].d([m5C])[sp].d(A)[sp].d(T)[sp].d(T)[sp].[moe](G)p.[moe](G)p.[moe](G)[sp].[moe](T)}$$$$ (last 3' nucleoside missing) | 4.5 score 0-7
21 | RNA1{[moe](A)[sp].[moe](G)p.[moe](G)p.[moe]([m5C])p.[moe](A)p.d(T)[sp].d(A)[sp].d(A)[sp].d(A)[sp].d(T)[sp].d(T)[sp].d(T)[sp].d([m5C])[sp].d(A)[sp].d(T)[sp].[moe]([m5C])p.[moe](T)p.[moe](T)[sp].[moe](A)}$$$$ (last 3' nucleoside missing) | 0 score 0-7
22 | RNA1{[moe](A)[sp].[moe](G)p.[moe](T)p.[moe](A)p.[moe](A)p.d(A)[sp].d(A)[sp].d(G)[sp].d(T)[sp].d(T)[sp].d(T)[sp].d(T)[sp].d(T)[sp].d([m5C])[sp].d([m5C])[sp].[moe]([m5C])p.[moe](T)p.[moe](T)[sp].[moe](A)}$$$$ (last 3' nucleoside missing) | 3.25 score 0-7
23 | RNA1{[moe](A)[sp].[moe](G)p.[moe](T)p.[moe](A)p.[moe](T)p.d([m5C])[sp].d(T)[sp].d([m5C])[sp].d(A)[sp].d(G)[sp].d(T)[sp].d(T)[sp].d(T)[sp].d(T)[sp].d(T)[sp].[moe](T)p.[moe](T)p.[moe](T)[sp].[moe](T)}$$$$ (last 3' nucleoside missing) | 2 score 0-7
24 | RNA1{[moe](A)[sp].[moe](G)p.[moe](T)p.[moe](G)p.[moe](T)p.d(T)[sp].d(T)[sp].d(G)[sp].d(G)[sp].d(G)[sp].d(A)[sp].d(T)[sp].d(G)[sp].d([m5C])[sp].d(T)[sp].[moe](T)p.[moe]([m5C])p.[moe](A)[sp].[moe](G)}$$$$ (last 3' nucleoside missing) | 6.5 score 0-7
25 | RNA1{[moe](A)[sp].[moe](G)p.[moe](T)p.[moe](T)p.[moe]([m5C])p.d(A)[sp].d([m5C])[sp].d([m5C])[sp].d(T)[sp].d(G)[sp].d([m5C])[sp].d(A)[sp].d(T)[sp].d([m5C])[sp].d([m5C])[sp].[moe]([m5C])p.[moe](A)p.[moe](G)[sp].[moe](G)}$$$$ (last 3' nucleoside missing) | 5.5 score 0-7
26 | RNA1{[moe](A)[sp].[moe](G)p.[moe](T)p.[moe]([m5C])p.[moe](A)p.d(T)[sp].d(G)[sp].d([m5C])[sp].d(T)[sp].d(T)[sp].d(A)[sp].d(T)[sp].d(A)[sp].d(A)[sp].d(A)[sp].[moe](G)p.[moe](T)p.[moe]([m5C])[sp].[moe]([m5C])}$$$$ (last 3' nucleoside missing) | 3.5 score 0-7
27 | RNA1{[moe](A)[sp].[moe](G)p.[moe](T)p.[moe]([m5C])p.[moe](T)p.d(T)[sp].d(G)[sp].d(T)[sp].d(T)[sp].d([m5C])[sp].d(A)[sp].d(G)[sp].d(T)[sp].d(G)[sp].d(T)[sp].[moe]([m5C])p.[moe]([m5C])p.[moe](T)[sp].[moe](T)}$$$$ (last 3' nucleoside missing) | 5 score 0-7
